The values below come from patent publication US9339032B2, “Heterocyclic compounds as pesticides” (Bayer Intellectual Property GmbH, priority 2010, dated 2016).

Data set [1] in a line: Determination of the log P values (formic acid method) by reverse-phase HPLC. The note with it: reverse-phase HPLC column (C 18), reverse-phase column (C 18), acidic range (pH 3.4), 55° C. The class given is physicochemical. As for the experimental part:
1) Description of Method for Determination of the log P Values (Formic Acid Method)
The log P values given in the table were determined in accordance with EEC Directive 79/831 Annex V.A8 by HPLC (High Performance Liquid Chromatography) using a reverse-phase column (C 18). Temperature: 55° C.
Eluents for determination in the acidic range (pH 3.4):
Eluent A: acetonitrile+1 ml of formic acid/liter. Eluent B: water+0.9 ml of formic acid/liter.
Gradient: from 10% eluent A/90% eluent B to 95% eluent A/5% eluent B in 4.25 min.
The calibration was effected with unbranched alkan-2-ones (having 3 to 16 carbon atoms) with known log P values (log P values determined on the basis of the retention times by linear interpolation between two successive alkanones). The lambda max values were determined in the maxima of the chromatographic signals using the UV spectra from 200 nm to 400 nm.

The test system of data set [2] is Boophilus microplus. Briefly: Boophilus microplus test (injection). The class given is in vivo. The note with it: 20 μg/animal, injection into the abdomen, after 7 days; 100% = none of the ticks has laid fertile eggs. As for the experimental part:
The NMR spectra were • a) determined with a Bruker Avance 400 fitted with a flow probe head (volume 60 μl). The solvent used was CD3CN or d6-DMSO, with tetramethylsilane (0.00 ppm) used as a reference. • b) determined with a Bruker Avance II 600. The solvent used was CD3CN or d6-DMSO, with tetramethylsilane (0.00 ppm) used as a reference. The splitting of the signals was described as follows: s (singlet), d (doublet), t (triplet), q (quartet), quin (quintet), m (multiplet). Boophilus Microplus Test (Injection)
Solvent: dimethyl sulphoxide
To prepare an appropriate active ingredient formulation, 10 mg of active ingredient are mixed with 0.5 ml of solvent and the concentrate is diluted with solvent to the desired concentration. The active ingredient solution is injected into the abdomen (Boophilus microplus), and the animals are transferred into dishes and stored in a climate-controlled room. The activity is assessed by laying of fertile eggs.
After 7 days, the efficacy in % is determined. 100% means that none of the ticks has laid any fertile eggs.

The subject of data set [3] is green peach aphid (Myzus persicae). Briefly: Myzus test (spray treatment). The class given is in vivo. The note with it: 500 g/ha, spray on Chinese cabbage leaf discs, after 6 days; 100% = all aphids killed. As for the experimental part:
Myzus Test (Spray Treatment) Solvent: 78 parts by weight of acetone • • 1.5 parts by weight of dimethylformamide Emulsifier: 0.5 part by weight of alkylaryl polyglycol ether To prepare an appropriate active ingredient preparation, 1 part by weight of active ingredient is mixed with the stated amounts of solvent and emulsifier, and the concentrate is diluted with emulsifier-containing water to the desired concentration. Discs of Chinese cabbage (Brassica pekinensis) infested by all stages of the green peach aphid (Myzus persicae) are sprayed with an active ingredient preparation of the desired concentration. After 6 days, the efficacy in % is determined. 100% means that all of the aphids have been killed; 0% means that none of the aphids have been killed.

The structures appear in SMILES notation. Like-named read-outs stand apart in the source and are kept apart here.

Consider `Cc1nc(-c2cccnc2)sc1NC(=O)CC(F)(F)F` [Compound 1, 3,3,3-Trifluoro-N-[4-methyl-2-(pyridin-3-yl)-1,3-thiazol-5-yl]propanamide], for which the chromatographic logP in data set [1] (read-out: log P (HCOOH)) was determined as 1.47. Also, in data set [2], the “efficacy in % (laying of fertile eggs)” value was 100%. Also, the “efficacy in % (aphids killed)” value in data set [3] turned out to be 80%. For the molecule `Cc1nc(-c2cccnc2)sc1NC(=O)Cc1ncccn1` [Compound 2, N-[4-Methyl-2-(pyridin-3-yl)-1,3-thiazol-5-yl]-2-(pyrimidin-2-yl)acetamide], the chromatographic logP in data set [1] (read-out: log P (HCOOH)) came out at 0.74. Besides, the “efficacy in % (aphids killed)” value in data set [3] is given as 100%.

Turning to `Cc1nc(-c2cccnc2)sc1S(=O)(=O)N(C)C` [Compound 3], the chromatographic logP in data set [1] (read-out: log P (HCOOH)) worked out at 1.86. Further, the “efficacy in % (aphids killed)” value in data set [3] is 100%.

As for `CN(C)S(=O)(=O)NC(=O)c1cnn(-c2cccnc2)c1` [Compound 4, N-(Dimethylsulphamoyl)-1-(pyridin-3-yl)-1H-pyrazole-4-carboxamide], in data set [1] (read-out: log P (HCOOH)), the chromatographic logP is 1.03. Further, the “efficacy in % (aphids killed)” value in data set [3] is 90%. With `O=S(=O)(Nc1cnn(-c2cccnc2)c1)C(F)F` [Compound 5, 1,1-Difluoro-N-[1-(pyridin-3-yl)-1H-pyrazol-4-yl]methanesulphonamide], the chromatographic logP in data set [1] (read-out: log P (HCOOH)) worked out at 1.01. Turning to `Cc1nn(-c2cccnc2)cc1C(=O)NS(=O)(=O)c1ccccc1` [Compound 6], in data set [1] (table, read-out: logP (HCOOH)), the chromatographic logP came out at 1.71. The “efficacy in % (aphids killed)” value in data set [3] was found to be 100%.

`CN(C)S(=O)(=O)NC(=O)c1cnn(-c2cncc(F)c2)c1` [Compound 7]: the chromatographic logP in data set [1] (table, read-out: logP (HCOOH)) amounted to 1.42. The “efficacy in % (aphids killed)” value in data set [3] was found to be 100%. On to `O=C(NS(=O)(=O)C1CC1)c1cnn(-c2cncc(F)c2)c1` [Compound 8], for which the chromatographic logP in data set [1] (table, read-out: logP (HCOOH)) stood at 1.28. Further, the “efficacy in % (aphids killed)” value in data set [3] is on record as 90%. For the molecule `O=C(NS(=O)(=O)c1ccccc1)c1cnn(-c2cccnc2)c1` [Compound 9], the chromatographic logP in data set [1] (table, read-out: logP (HCOOH)) was 1.39.

Consider `Cc1nc(-c2cccnc2)sc1S(=O)(=O)NCc1ncccn1` [Compound 10], for which, in data set [1] (table, read-out: logP (HCOOH)), the chromatographic logP worked out at 1.35.

Regarding `O=C(NS(=O)(=O)C1CC1)c1cnn(-c2cccnc2)c1` [Compound 11], the chromatographic logP in data set [1] (table, read-out: logP (HCOOH)) came to 0.83.

In the case of `Cc1nc(-c2cccnc2)sc1C(=O)NS(C)(=O)=O` [Compound 12], the chromatographic logP in data set [1] (table, read-out: logP (HCOOH)) came out at 0.54.

In the case of `Cc1nn(-c2cccnc2)cc1C(=O)NS(C)(=O)=O` [Compound 13], the chromatographic logP in data set [1] (table, read-out: logP (HCOOH)) stood at 0.81.

`COCCNS(=O)(=O)c1sc(-c2cccnc2)nc1C` [Compound 14]: the chromatographic logP in data set [1] (table, read-out: logP (HCOOH)) came to 1.51. For `O=C(NS(=O)(=O)C(F)(F)F)c1cnn(-c2cccnc2)c1` [Compound 15], the chromatographic logP in data set [1] (table, read-out: logP (HCOOH)) is 0.67. Same read-out and setting: the value for `CS(=O)(=O)NC(=O)c1cnn(-c2cccnc2)c1` [Compound 16] was 0.41; that for `O=C(NS(=O)(=O)c1ccccc1)c1cnn(-c2cncc(F)c2)c1` [Compound 17] was 1.81; that for `CS(=O)(=O)NC(=O)c1cnn(-c2cncc(F)c2)c1` [Compound 18] was 0.9. For the molecule `CCS(=O)(=O)NC(=O)c1cnn(-c2cccnc2)c1` [Compound 19], the chromatographic logP in data set [1] (table, read-out: logP (HCOOH)) came out at 0.69. On the same count and under the same terms, then `Cc1nc(-c2cncc(F)c2)sc1C(=O)NS(C)(=O)=O` [Compound 20], with 1.08; and `CCS(=O)(=O)NC(=O)c1cnn(-c2cncc(F)c2)c1` [Compound 21], with 1.24. Take `CCOC(=O)c1cnn(-c2cccnc2)c1` [Ethyl 1-(pyridin-3-yl)-1H-pyrazole-4-carboxylate]: the chromatographic logP in data set [1] (read-out: log P (HCOOH)) worked out at 1.55.
